Series [1] concerns male ddY mice. The experiment in a line: Acute toxicity. Format: in vivo. The following applies: 5 days. The procedure:
Groups of 5 male ddY mice were used. […] Similarly, the mice were orally administered with 1000 mg/kg of the compound, but they survived for 5 days after the administration.

The target of series [2] is benzodiazepine (BZP) receptors. The experiment in a line: Displacement ability for benzodiazepine receptor (tritiated diazepam binding, crude synaptosome fraction of cerebral cortex). Also noted: species or system Wistar rats. The following applies: displacement of tritiated diazepam (2 nM), 0°C, 20 minutes, rat cerebral cortex synaptosome fraction. The procedure:
The test of specific binding to benzodiazepine (BZP) receptors was carried out according to the method described in Life Science, vol. 20, 2101 (1977).
The crude synaptosome fraction isolated from the cerebral cortex of male Wistar rats aged 9-10 weeks, was suspended in 50 mM Trishydrochloric acid buffer (pH 7.4) containing 120 mM sodium chloride and 5 mM potassium chloride. The suspension was used for the following experiment.
The test compound in several different concentrations and tritiated diazepam (in final concentration of 2 nM) were added to the synaptosomal suspension, and the mixture was incubated at 0°C for 20 minutes. The suspension was filtered with Whatman GF/B (Trademark) glassfiber filter. After the filter was washed with the above-mentioned buffer, the radio activity left on the filter was measured with a liquid scintillation counter.
The specific binding was determined by subtracting the binding in the presence of 10⁻⁶ M unlabelled diazepam from total binding.
The affinity for benzodiazepine receptors of the compound of the present invention is evaluated from its displacement ability for tritiated diazepam at its binding site, which is represented by Ki value (nM).

Series [3] deals with GABA-induced chloride current. Format: cell-based, American bullfrogs. The following applies: dorsal root ganglion neurons. The procedure: The test was carried out according to the method of Akaike et al. reported in Journal of Physiology (London), 379, 171 (1986) using sensory neurons isolated from dosal root ganglion of American bullfrogs. Neurons were voltage-clamped at a holding membrane potential of -50 mV with a single-electrode voltage-clamp system. Test compounds were applied by using a concentration-clamp technique. When the peak Cl⁻ current (ICl) elicited by 3 x 10⁻⁶ M GABA alone was presented as 1, the augumentive ICl of the test compounds in the presence of 3 x 10⁻⁶ M GABA was measured. The results were presented as relative ICl values in Table 1.

Structures are written as SMILES.

On to `O=C(c1ccccc1)c1cc2c(s1)CCC1CC(=O)N(c3ccc(Cl)cc3)N=C21` (stereo not shown) [Example 16, 8-benzoyl-2-(4-chlorophenyl)-4,4a,5,6-tetrahydrothieno[2,3-h]cinnolin-3(2H)-one], for which the survival after administration result is on record as “all mice survived” in series [1] (300 mg/kg intraperitoneally, groups of 5 male ddY mice) and “survived” in series [1] (1000 mg/kg orally, male ddY mice).
Regarding `CC(=O)c1cc2c(s1)CCCC1CC(=O)N(c3ccc(Cl)cc3)N=C21` (stereo not shown) [Example 18, 9-acetyl-2-(4-chlorophenyl)-2,4,4a,5,6,7-hexahydro-3H-thieno[2',3':6,7]cyclohepta[1,2-c]pyridazin-3-one], affinity in series [2] was put at a Ki of 4.2 nM. The “Relative ICl” value in series [3] is 1.38.
